These results are taken from patent US6900245B2, “Pharmaceutical composition comprising crystalline sibutramine methanesulfonate hemihydrate” (priority 2002, dated 2005).

The nature of data set [1]: Non-hygroscopic test: water content by Karl Fischer after storage at 40° C., 75% or 10% relative humidity. The data set is classed as physicochemical. The following applies: for water-content: 40° C. How it is done: Crystalline sibutramine methanesulfonate hemihydrate of formula (I), sibutramine hydrochloride monohydrate (IV) and anhydrous sibutramine methanesulfonate were each exposed to a high temperature/humidity condition of 40° C. and 75% relative humidity for 1, 2, and 5 days, and the water content thereof was measured by employing Kaal-Fisher moisture analyzer.
A similar series of experiments were conducted at 40° C. and 10% relative humidity, in order to examine whether the respective compounds are stable under a relatively dry condition.

A short description of data set [2]: Solubility in water at pH 5.2 (saturation, HPLC). It counts as physicochemical. The following applies: for solubility: pH 5.2, thermodynamic from solid, pH5.2, saturation, HPLC, based on water-free sibutramine. The source says:
Sibutramine methanesulfonate hemihydrate of formula (I) and sibutramine hydrochloride monohydrate were each dissolved to the saturation point at pH 5.2, and then subjected to high performance liquid chromatography (HPLC) to determine the dissolved amount (based on water-free of sibutramine).

Data set [3] can be described thus: Stability on long term storage at 60° C. (residual rate). It counts as physicochemical. How it is done: The thermal stability of crystalline methanesulfonate hemihydrate of formula (I) during a long term storage was compared with that of the sibutramine hydrochloride monohydrate of formula (IV). The amounts of unchanged crystalline methanesulfonate hemihydrate of formula (I) and sibutramine hydrochloride monohydrate of formula (IV) at 60° C. after 1, 2, 3 and 6 months are shown in Table 3.

In data set [4] the test system is overweight Zuker rats (fa/fa). In words: Weight loss effect, 21 days, high-fat food. It counts as in vivo, rat. The following applies: 3 mg/kg everyday for 21 days. How it is done: (§1) 16 each of overweight Zuker rats (fa/fa) and thin Zuker rats (Fa/Fa) were divided into drug-administrating and control groups (8 rats per group), and the weight of each rat was measured prior to the test. A 3 mg/kg dose of crystalline sibutramine methanesulfonate hemihydrate was administrated to each rat of the drug-administrating groups, whiling the vehicle was administrated to those of the control groups, everyday for 21 days. During the period, rats were allowed free access to high-fat food, and the average weights of the drug-administrating and control groups were determined in order to calculate the weight gain and loss.

A further data set concerns thin Zuker rats (Fa/Fa). Nature of the data set: Weight loss effect, 21 days, high-fat food. The data set is classed as in vivo, rat. The following applies: 3 mg/kg everyday for 21 days. How it is done:
as §1

A short description of data set [5]: Exposure of anhydrous enantiomer salts to room temperature, 75% relative humidity. It counts as physicochemical. The source says:
Further, anhydrous (+)- and (−)-sibutramine methanesulfonate were each placed for 1 day at room temperature under 75% relative humidity.

For data set [6] the following is noted: background statement on the prior art; cited from earlier work.
The conditions of data set [7]: pH 5.2; Merck Index, 13th Ed, p1522; cited from earlier work.
Where [8] appears, read: 10% relative humidity, storage 1 day.
Setting [9] is: 10% relative humidity, storage 2 days.
Where [10] appears, read: 10% relative humidity, storage 5 days.
[11] abbreviates: 75% relative humidity, storage 1 day.
The mark [12] stands for this setting: 75% relative humidity, storage 2 days.
Where [13] appears, read: 75% relative humidity, storage 5 days.

Each structure is given as a SMILES string. Where a name gives a salt, the structure may show the parent alone. Read-outs that look alike come from different tables or passages of the source.

Turning to `CC(C)CC(N(C)C)C1(c2ccc(Cl)cc2)CCC1.CS(=O)(=O)O` (stereo not shown) [anhydrous sibutramine methanesulfonate], the water-content in data set [1] (setting [8]) worked out at 0.60 % by weight; in data set [1] (setting [9]) it was 0.71 % by weight; in data set [1] (setting [10]) it was 0.70 % by weight; in data set [1] (setting [11]) it was 0.60 % by weight; in data set [1] (setting [12]), 2.20 % by weight; in data set [1] (setting [13]), 2.25 % by weight.

Molecule `CC(C)CC(N(C)C)C1(c2ccc(Cl)cc2)CCC1` (racemic) [sibutramine methanesulfonate hemihydrate] gave a water-content in data set [1] (setting [8]) of 2.27 % by weight. Also, in data set [1] (setting [9]), the water-content was 2.25 % by weight. In data set [1] (setting [10]), this molecule displayed a water-content of 2.26 % by weight. In data set [1] (setting [11]), the water-content amounted to 2.27 % by weight. Besides, the water-content in data set [1] (setting [12]) is recorded as 2.30 % by weight. The molecule also registered a water-content in data set [1] (setting [13]) of 2.30 % by weight. Further, the “release of the water of crystallization” value in data set [1] (dry condition (40° C., 10% RH)) was “does not release the water of crystallization”. In addition, in data set [1] (high humidity condition (40° C., 75% RH)), the hygroscopicity entry is recorded as “non-hygroscopic”. Besides, the “solubility in water compared with sibutramine hydrochloride monohydrate of formula (IV)” value in data set [2] (pH 5.2) is on record as “markedly higher solubility in water”. Moreover, the solubility in data set [2] came out at 2500 mg/mL. In addition, in data set [3], the “Residual rate after 1 month” value came out at 1.001, the “Residual rate after 2 months” value is listed as 0.999, the “Residual rate after 3 months” value is reported as 0.999 and the “Residual rate after 6 months” value was 1.000. In addition, the “Initial (unchanged amount)” value in data set [3] is listed as 1.000. Moreover, the “stability compared with sibutramine hydrochloride monohydrate” value in data set [3] (up to 6 months) is listed as “as stable as sibutramine hydrochloride monohydrate”. The “weight loss effect as compared with the control group” value in data set [4] (Zuker rats, sentence covers overweight and thin rats) was “remarkable weight loss effect”. For the same molecule, in data set [4] (overweight Zuker rats), the “The average weight after test (B)” value is given as 455.6 g, the “Weight gain (B − A)” value is recorded as 123.4 g and the “Weight loss effect ((Gain in weight of the control group) − (Gain in weight of the drug-administrating group))” value was 29.6 g. Besides, in the data set with thin Zuker rats (Fa/Fa), the “The average weight after test (B)” value worked out at 303.4 g, the “Weight gain (B − A)” value came out at 58.4 g and the “Weight loss effect ((Gain in weight of the control group) − (Gain in weight of the drug-administrating group))” value is 20.4 g.

As to `CC(C)CC(N(C)C)C1(c2ccc(Cl)cc2)CCC1.CS(=O)(=O)O` (single isomer, unassigned; (-)) [(−)-sibutramine methanesulfonate], in data set [5], the “state after 1 day” value is reported as “transparent liquid”.

Consider `CC(C)CC(N(C)C)C1(c2ccc(Cl)cc2)CCC1.CS(=O)(=O)O` (single isomer, unassigned; (+)) [(+)-sibutramine methanesulfonate], for which, in data set [5], the “state after 1 day” value is on record as “transparent liquid”.

`CC(C)CC(N(C)C)C1(c2ccc(Cl)cc2)CCC1.Cl` (stereo not shown) [anhydrous sibutramine hydrochloride]: the hygroscopicity entry in data set [6] is on record as “highly hygroscopic”.

Turning to `CC(C)CC(N(C)C)C1(c2ccc(Cl)cc2)CCC1` (stereo not shown) [sibutramine hydrochloride monohydrate, reference compound], the water-content in data set [1] (setting [8]) turned out to be 5.40 % by weight; in data set [1] (setting [9]) it was 5.36 % by weight; in data set [1] (setting [10]), 5.36 % by weight; in data set [1] (setting [11]), 5.40 % by weight; in data set [1] (setting [12]) it was 5.45 % by weight; in data set [1] (setting [13]) it was 5.48 % by weight. The hygroscopicity entry in data set [6] is “non-hygroscopic”. Also, in data set [2], the solubility amounted to 2.8 mg/mL. The “Residual rate after 1 month” value in data set [3] is 1.000. Moreover, the “Residual rate after 2 months” value in data set [3] is reported as 0.999. Besides, the “Residual rate after 3 months” value in data set [3] is recorded as 0.999. For the same molecule, the “Residual rate after 6 months” value in data set [3] was 0.992. Also, the “Initial (unchanged amount)” value in data set [3] was determined as 1.000. Also, the solubility in water in data set [7] is 2.9 mg/mL.

As a reminder, the solubility is how much of the substance goes into solution per volume. Read a high solubility as much dissolved substance.
